{"source": "ChEMBL document CHEMBL1201861", "about": "“Genomics of Drug Sensitity in Cancer screening data, Wellcome Trust Sanger Institute”"}
{"test_system": "COLO-792", "test": "cells", "assay_type": "functional, cell-based", "conditions": "Homo sapiens", "units": {"IC50": "µM"}, "description": "SANGER: Inhibition of human COLO-792 cell growth in a cell viability assay."}
{"smiles": "O=C(NCCCNc1nc(Nc2cccc(NC(=O)N3CCCC3)c2)ncc1I)c1cccs1", "note": "[BX-795]", "IC50": "> 5"}
{"test_system": "COR-L105", "test": "cells", "assay_type": "functional, cell-based", "conditions": "Homo sapiens", "units": {"IC50": "µM"}, "description": "SANGER: Inhibition of human COR-L105 cell growth in a cell viability assay."}
{"smiles": "O=C(NCCCNc1nc(Nc2cccc(NC(=O)N3CCCC3)c2)ncc1I)c1cccs1", "note": "[BX-795]", "IC50": "> 5"}
{"test_system": "CP50-MEL-B", "test": "cells", "assay_type": "functional, cell-based", "conditions": "Homo sapiens", "units": {"IC50": "µM"}, "description": "SANGER: Inhibition of human CP50-MEL-B cell growth in a cell viability assay."}
{"smiles": "O=C(NCCCNc1nc(Nc2cccc(NC(=O)N3CCCC3)c2)ncc1I)c1cccs1", "note": "[BX-795]", "IC50": "> 5"}
{"test_system": "D-336MG", "test": "cells", "assay_type": "functional, cell-based, Homo sapiens", "conditions": "Homo sapiens, D-336MG", "units": {"IC50": "µM"}, "description": "SANGER: Inhibition of human D-336MG cell growth in a cell viability assay."}
{"smiles": "O=C(NCCCNc1nc(Nc2cccc(NC(=O)N3CCCC3)c2)ncc1I)c1cccs1", "note": "[BX-795]", "IC50": 4.3}
{"test_system": "DBTRG-05MG", "test": "cells", "assay_type": "functional, cell-based", "conditions": "Homo sapiens", "units": {"IC50": "µM"}, "description": "SANGER: Inhibition of human DBTRG-05MG cell growth in a cell viability assay."}
{"smiles": "O=C(NCCCNc1nc(Nc2cccc(NC(=O)N3CCCC3)c2)ncc1I)c1cccs1", "note": "[BX-795]", "IC50": "> 5"}
{"test_system": "ESS-1", "test": "cells", "assay_type": "functional, cell-based", "conditions": "Homo sapiens", "units": {"IC50": "µM"}, "description": "SANGER: Inhibition of human ESS-1 cell growth in a cell viability assay."}
{"smiles": "O=C(NCCCNc1nc(Nc2cccc(NC(=O)N3CCCC3)c2)ncc1I)c1cccs1", "note": "[BX-795]", "IC50": "> 5"}
{"test_system": "GMS-10", "test": "cells", "assay_type": "functional, cell-based", "conditions": "Homo sapiens", "units": {"IC50": "µM"}, "description": "SANGER: Inhibition of human GMS-10 cell growth in a cell viability assay."}
{"smiles": "O=C(NCCCNc1nc(Nc2cccc(NC(=O)N3CCCC3)c2)ncc1I)c1cccs1", "note": "[BX-795]", "IC50": 4.12}
{"test_system": "HCC1419", "test": "cells", "assay_type": "functional, cell-based", "conditions": "Homo sapiens", "units": {"IC50": "µM"}, "description": "SANGER: Inhibition of human HCC1419 cell growth in a cell viability assay."}
{"smiles": "O=C(NCCCNc1nc(Nc2cccc(NC(=O)N3CCCC3)c2)ncc1I)c1cccs1", "note": "[BX-795]", "IC50": "> 5"}
{"test_system": "HT-1080", "test": "cells", "assay_type": "functional, cell-based", "conditions": "Homo sapiens", "units": {"IC50": "µM"}, "description": "SANGER: Inhibition of human HT-1080 cell growth in a cell viability assay."}
{"smiles": "O=C(NCCCNc1nc(Nc2cccc(NC(=O)N3CCCC3)c2)ncc1I)c1cccs1", "note": "[BX-795]", "IC50": "> 5"}
{"test_system": "Hs-578T", "test": "cells", "assay_type": "functional, cell-based", "conditions": "Homo sapiens", "units": {"IC50": "µM"}, "description": "SANGER: Inhibition of human Hs-578-T cell growth in a cell viability assay."}
{"smiles": "O=C(NCCCNc1nc(Nc2cccc(NC(=O)N3CCCC3)c2)ncc1I)c1cccs1", "note": "[BX-795]", "IC50": 2.42}
{"test_system": "HuO9", "test": "cells", "assay_type": "functional, cell-based", "conditions": "Homo sapiens", "units": {"IC50": "µM"}, "description": "SANGER: Inhibition of human HuO9 cell growth in a cell viability assay."}
{"smiles": "O=C(NCCCNc1nc(Nc2cccc(NC(=O)N3CCCC3)c2)ncc1I)c1cccs1", "note": "[BX-795]", "IC50": 2.56}
{"test_system": "KOSC-2", "test": "cells", "assay_type": "functional, cell-based", "conditions": "Homo sapiens", "units": {"IC50": "µM"}, "description": "SANGER: Inhibition of human KOSC-2 cell growth in a cell viability assay."}
{"smiles": "O=C(NCCCNc1nc(Nc2cccc(NC(=O)N3CCCC3)c2)ncc1I)c1cccs1", "note": "[BX-795]", "IC50": 3.07}
{"test_system": "KYSE-180", "test": "cells", "assay_type": "functional, cell-based", "conditions": "Homo sapiens", "units": {"IC50": "µM"}, "description": "SANGER: Inhibition of human KYSE-180 cell growth in a cell viability assay."}
{"smiles": "O=C(NCCCNc1nc(Nc2cccc(NC(=O)N3CCCC3)c2)ncc1I)c1cccs1", "note": "[BX-795]", "IC50": "> 5"}
{"test_system": "KYSE-410", "test": "cells", "assay_type": "functional, cell-based", "conditions": "Homo sapiens", "units": {"IC50": "µM"}, "description": "SANGER: Inhibition of human KYSE-410 cell growth in a cell viability assay."}
{"smiles": "O=C(NCCCNc1nc(Nc2cccc(NC(=O)N3CCCC3)c2)ncc1I)c1cccs1", "note": "[BX-795]", "IC50": "> 5"}
{"test_system": "KYSE-450", "test": "cells", "assay_type": "functional, cell-based", "conditions": "Homo sapiens", "units": {"IC50": "µM"}, "description": "SANGER: Inhibition of human KYSE-450 cell growth in a cell viability assay."}
{"smiles": "O=C(NCCCNc1nc(Nc2cccc(NC(=O)N3CCCC3)c2)ncc1I)c1cccs1", "note": "[BX-795]", "IC50": "> 5"}
{"test_system": "MDA-MB-175-VII", "test": "cells", "assay_type": "functional, cell-based", "conditions": "Homo sapiens", "units": {"IC50": "µM"}}
{"smiles": "O=C(NCCCNc1nc(Nc2cccc(NC(=O)N3CCCC3)c2)ncc1I)c1cccs1", "note": "[BX-795]", "IC50": "> 5"}
{"test_system": "MDA-MB-361", "test": "cells", "assay_type": "functional, cell-based", "conditions": "Homo sapiens", "units": {"IC50": "µM"}}
{"smiles": "O=C(NCCCNc1nc(Nc2cccc(NC(=O)N3CCCC3)c2)ncc1I)c1cccs1", "note": "[BX-795]", "IC50": "> 5"}
{"test_system": "MDA-MB-415", "test": "cells", "assay_type": "functional, cell-based", "conditions": "Homo sapiens", "units": {"IC50": "µM"}}
{"smiles": "O=C(NCCCNc1nc(Nc2cccc(NC(=O)N3CCCC3)c2)ncc1I)c1cccs1", "note": "[BX-795]", "IC50": "> 5"}
{"test_system": "NCI-H1563", "test": "cells", "assay_type": "functional, cell-based", "conditions": "Homo sapiens", "units": {"IC50": "µM"}, "description": "SANGER: Inhibition of human NCI-H1563 cell growth in a cell viability assay."}
{"smiles": "O=C(NCCCNc1nc(Nc2cccc(NC(=O)N3CCCC3)c2)ncc1I)c1cccs1", "note": "[BX-795]", "IC50": "> 5"}
{"test_system": "NCI-H650", "test": "cells", "assay_type": "functional, cell-based", "conditions": "Homo sapiens", "units": {"IC50": "µM"}, "description": "SANGER: Inhibition of human NCI-H650 cell growth in a cell viability assay."}
{"smiles": "O=C(NCCCNc1nc(Nc2cccc(NC(=O)N3CCCC3)c2)ncc1I)c1cccs1", "note": "[BX-795]", "IC50": 3.4}
{"test_system": "NUGC-3", "test": "cells", "assay_type": "functional, cell-based", "conditions": "Homo sapiens", "units": {"IC50": "µM"}, "description": "SANGER: Inhibition of human NUGC-3 cell growth in a cell viability assay."}
{"smiles": "O=C(NCCCNc1nc(Nc2cccc(NC(=O)N3CCCC3)c2)ncc1I)c1cccs1", "note": "[BX-795]", "IC50": "> 5"}
{"test_system": "OE19", "test": "cells", "assay_type": "functional, cell-based", "conditions": "Homo sapiens", "units": {"IC50": "µM"}, "description": "SANGER: Inhibition of human OE19 cell growth in a cell viability assay."}
{"smiles": "O=C(NCCCNc1nc(Nc2cccc(NC(=O)N3CCCC3)c2)ncc1I)c1cccs1", "note": "[BX-795]", "IC50": "> 5"}
{"test_system": "PANC-03-27", "test": "cells", "assay_type": "functional, cell-based", "conditions": "Homo sapiens", "units": {"IC50": "µM"}, "description": "SANGER: Inhibition of human PANC-03-27 cell growth in a cell viability assay."}
{"smiles": "O=C(NCCCNc1nc(Nc2cccc(NC(=O)N3CCCC3)c2)ncc1I)c1cccs1", "note": "[BX-795]", "IC50": 4.21}
{"test_system": "RPMI-7951", "test": "cells", "assay_type": "functional, cell-based", "conditions": "Homo sapiens", "units": {"IC50": "µM"}, "description": "SANGER: Inhibition of human RPMI-7951 cell growth in a cell viability assay."}
{"smiles": "O=C(NCCCNc1nc(Nc2cccc(NC(=O)N3CCCC3)c2)ncc1I)c1cccs1", "note": "[BX-795]", "IC50": 3.19}
{"test_system": "SAS", "test": "cells", "assay_type": "functional, cell-based", "conditions": "Homo sapiens", "units": {"IC50": "µM"}, "description": "SANGER: Inhibition of human SAS cell growth in a cell viability assay."}
{"smiles": "O=C(NCCCNc1nc(Nc2cccc(NC(=O)N3CCCC3)c2)ncc1I)c1cccs1", "note": "[BX-795]", "IC50": "> 5"}
{"test_system": "SJRH30", "test": "cells", "assay_type": "functional, cell-based", "conditions": "Homo sapiens", "units": {"IC50": "µM"}, "description": "SANGER: Inhibition of human SJRH30 cell growth in a cell viability assay."}
{"smiles": "O=C(NCCCNc1nc(Nc2cccc(NC(=O)N3CCCC3)c2)ncc1I)c1cccs1", "note": "[BX-795]", "IC50": "> 5"}
{"test_system": "SK-LU-1", "test": "cells", "assay_type": "functional, cell-based", "conditions": "Homo sapiens", "units": {"IC50": "µM"}, "description": "SANGER: Inhibition of human SK-LU-1 cell growth in a cell viability assay."}
{"smiles": "O=C(NCCCNc1nc(Nc2cccc(NC(=O)N3CCCC3)c2)ncc1I)c1cccs1", "note": "[BX-795]", "IC50": "> 5"}
{"test_system": "SKG-IIIa", "test": "cells", "assay_type": "functional, cell-based", "conditions": "Homo sapiens", "units": {"IC50": "µM"}, "description": "SANGER: Inhibition of human SKG-IIIa cell growth in a cell viability assay."}
{"smiles": "O=C(NCCCNc1nc(Nc2cccc(NC(=O)N3CCCC3)c2)ncc1I)c1cccs1", "note": "[BX-795]", "IC50": "> 5"}
{"test_system": "SN12C", "test": "cells", "assay_type": "functional, cell-based", "conditions": "Homo sapiens", "units": {"IC50": "µM"}, "description": "SANGER: Inhibition of human SN12C cell growth in a cell viability assay."}
{"smiles": "O=C(NCCCNc1nc(Nc2cccc(NC(=O)N3CCCC3)c2)ncc1I)c1cccs1", "note": "[BX-795]", "IC50": "> 5"}
{"test_system": "SW756", "test": "cells", "assay_type": "functional, cell-based", "conditions": "Homo sapiens", "units": {"IC50": "µM"}, "description": "SANGER: Inhibition of human SW756 cell growth in a cell viability assay."}
{"smiles": "O=C(NCCCNc1nc(Nc2cccc(NC(=O)N3CCCC3)c2)ncc1I)c1cccs1", "note": "[BX-795]", "IC50": "> 5"}
{"test_system": "SiHa", "test": "cells", "assay_type": "functional, cell-based", "conditions": "Homo sapiens", "units": {"IC50": "µM"}, "description": "SANGER: Inhibition of human SiHa cell growth in a cell viability assay."}
{"smiles": "O=C(NCCCNc1nc(Nc2cccc(NC(=O)N3CCCC3)c2)ncc1I)c1cccs1", "note": "[BX-795]", "IC50": "> 5"}
{"test_system": "8505C", "test": "cells", "assay_type": "functional, cell-based", "conditions": "Homo sapiens", "units": {"IC50": "µM"}, "description": "SANGER: Inhibition of human 8505C cell growth in a cell viability assay."}
{"smiles": "O=C(NCCCNc1nc(Nc2cccc(NC(=O)N3CCCC3)c2)ncc1I)c1cccs1", "note": "[BX-795]", "IC50": 3.8}
{"test_system": "A 172", "test": "cells", "assay_type": "functional, cell-based", "conditions": "Homo sapiens", "units": {"IC50": "µM"}, "description": "SANGER: Inhibition of human A172 cell growth in a cell viability assay."}
{"smiles": "O=C(NCCCNc1nc(Nc2cccc(NC(=O)N3CCCC3)c2)ncc1I)c1cccs1", "note": "[BX-795]", "IC50": 4.45}
{"test_system": "AGS", "test": "cells", "assay_type": "functional, cell-based", "conditions": "Homo sapiens", "units": {"IC50": "µM"}, "description": "SANGER: Inhibition of human AGS cell growth in a cell viability assay."}
{"smiles": "O=C(NCCCNc1nc(Nc2cccc(NC(=O)N3CCCC3)c2)ncc1I)c1cccs1", "note": "[BX-795]", "IC50": 2.56}
{"test_system": "AN3-CA", "test": "cells", "assay_type": "functional, cell-based", "conditions": "Homo sapiens", "units": {"IC50": "µM"}, "description": "SANGER: Inhibition of human AN3-CA cell growth in a cell viability assay."}
{"smiles": "O=C(NCCCNc1nc(Nc2cccc(NC(=O)N3CCCC3)c2)ncc1I)c1cccs1", "note": "[BX-795]", "IC50": 1.64}
{"test_system": "BT-20", "test": "cells", "assay_type": "functional, cell-based", "conditions": "Homo sapiens", "units": {"IC50": "µM"}, "description": "SANGER: Inhibition of human BT-20 cell growth in a cell viability assay."}
{"smiles": "O=C(NCCCNc1nc(Nc2cccc(NC(=O)N3CCCC3)c2)ncc1I)c1cccs1", "note": "[BX-795]", "IC50": "> 5"}
{"test_system": "CAL-12T", "test": "cells", "assay_type": "functional, cell-based", "conditions": "Homo sapiens", "units": {"IC50": "µM"}, "description": "SANGER: Inhibition of human CAL-12T cell growth in a cell viability assay."}
{"smiles": "O=C(NCCCNc1nc(Nc2cccc(NC(=O)N3CCCC3)c2)ncc1I)c1cccs1", "note": "[BX-795]", "IC50": 4.79}
{"test_system": "U-118-MG", "test": "cells", "assay_type": "functional, cell-based", "conditions": "Homo sapiens", "units": {"IC50": "µM"}, "description": "SANGER: Inhibition of human U-118-MG cell growth in a cell viability assay."}
{"smiles": "O=C(NCCCNc1nc(Nc2cccc(NC(=O)N3CCCC3)c2)ncc1I)c1cccs1", "note": "[BX-795]", "IC50": "> 5"}
{"test_system": "YAPC", "test": "cells", "assay_type": "functional, cell-based", "conditions": "Homo sapiens", "units": {"IC50": "µM"}, "description": "SANGER: Inhibition of human YAPC cell growth in a cell viability assay."}
{"smiles": "O=C(NCCCNc1nc(Nc2cccc(NC(=O)N3CCCC3)c2)ncc1I)c1cccs1", "note": "[BX-795]", "IC50": "> 5"}
{"test_system": "COLO-678", "test": "cells", "assay_type": "functional, cell-based", "conditions": "Homo sapiens", "units": {"IC50": "µM"}, "description": "SANGER: Inhibition of human COLO-678 cell growth in a cell viability assay."}
{"smiles": "O=C(NCCCNc1nc(Nc2cccc(NC(=O)N3CCCC3)c2)ncc1I)c1cccs1", "note": "[BX-795]", "IC50": "> 5"}
{"test_system": "COLO-679", "test": "cells", "assay_type": "functional, cell-based", "conditions": "Homo sapiens", "units": {"IC50": "µM"}, "description": "SANGER: Inhibition of human COLO-679 cell growth in a cell viability assay."}
{"smiles": "O=C(NCCCNc1nc(Nc2cccc(NC(=O)N3CCCC3)c2)ncc1I)c1cccs1", "note": "[BX-795]", "IC50": "> 5"}
{"test_system": "COLO-680N", "test": "cells", "assay_type": "functional, cell-based", "conditions": "Homo sapiens", "units": {"IC50": "µM"}, "description": "SANGER: Inhibition of human COLO-680N cell growth in a cell viability assay."}
{"smiles": "O=C(NCCCNc1nc(Nc2cccc(NC(=O)N3CCCC3)c2)ncc1I)c1cccs1", "note": "[BX-795]", "IC50": "> 5"}
